Molecular target: TAR RNA
Experiment: not given
Details: TAT binding to TAR RNA, Dingwall et al. (1990); cited from earlier work
In the case of “TAT: virally encoded HIV trans-acting regulatory protein that specifically recognizes TAR RNA”, the Kd is listed as 12 nM.

Test system: TAR-TAT complex formation in HL3T1 cells
Experiment: In vivo assay: inhibition of TAR-TAT complex formation in HL3T1 cells (HIV-1 LTR promoter, CAT reporter)
Type: cell-based
Details: compounds of formula V transfected into HL3T1 cells with pSV2Tat and pAL, CAT and luciferase read after 48 hour, read-out: Kd (nM), binding constants
Protocol: Binding of compounds of formula I and V to TAR RNA was measured by evaluating their inhibition of TAR-TAT complex formation in the presence of increasing levels of the compound to be tested. The compounds of formula I were tested in an in vitro assay; the compounds of formula V were tested in an in vivo assay.
Cells were grown in 2 mL of Dulbecco's modified Eagle medium (DMEM) supplemented with 10% fetal calf serum in 60 mm dishes at 37° C. in 5% CO2 in a tissue culture incubator. Cells were refreshed by 2 mL DMEM before transfection. Transfection was started by dropwise addition of 250 μL 2×HeBS (Hepes-buffered saline) and then keeping at room temperature for 10 minutes. Approximately 10 μg of plasmids (pSV2Tat and pAL) and increasing amounts of the Compounds DV, DW, DX or DY were transfected in the presence of CaCl2 (final concentration 125 mM) and the cells were incubated for 4 hour at 37° C. in a tissue culture incubator. The medium was then discarded and the cells were subjected to glycerol (1.5 mL of 15%) shock for 45 seconds. Finally the cells were washed twice with PBS (5 mL) and were grown in 3 mL DMEM. The cells were harvested after 48 hour post-transfection with changing with fresh DMEM at 24 hours and lysed in reporter lysis buffer (Promega). Aliquots were used for CAT and luciferase assays. Both activities were normalized to protein concentration determined by using a modified Bradford assay (Bio-Rad).
In the case of N=C(N)NCCC[C@@H](CNC(=O)N[C@@H](CCCNC(=N)N)CNC(=O)N[C@H](CN)CCCCN)NC(N)=O, the Kd is reported as 500 nM. N=C(N)NCCC[C@@H](CNC(=O)N[C@@H](CCCCN)CNC(=O)N[C@H](CN)CCCNC(=N)N)NC(N)=O [Compound DV, 1-{5-Amino-1-[3-(1-aminomethyl-4-guanidino-butyl)-ureidomethyl]-pentyl}-3-(5-guanidino-2-ureido-pentyl)-urea] gave a Kd of 500 nM. N=C(N)NCCC[C@@H](CNC(=O)N[C@@H](CCCCN)CNC(=O)N[C@H](CN)CCCCN)NC(N)=O [Compound DW, 1-{5-Amino-1-[3-(5-amino-1-aminomethyl-pentyl)-ureidomethyl]-pentyl}-3-(5-guanidino-2-ureido-pentyl)-urea] gave a Kd of 50 nM. N=C(N)NCCC[C@@H](CNC(=O)N[C@@H](CCCCN)CNC(=O)NCCN)NC(N)=O [Compound DY] gave a Kd of 150 nM.

Molecular target: TAR RNA
Experiment: In vitro binding of resin-bound compounds to TAR RNA (OD260 of unbound RNA)
Set-up: species or system HIV
Details: in vitro assay; compounds of formula I on TentaGel beads incubated with TAR RNA overnight at 4° C. in TK buffer; read-out: Kd (nM), binding constants
In short: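 Ten beads of TentaGel-bound compound in TK buffer were incubated overnight at 4 °C with T7-transcribed 29-residue TAR RNA ([…]). Unbound RNA in the supernatant was quantified by OD260. KD was calculated from equilibrium RNA concentrations assuming simple bimolecular binding.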
For NCCCCCN(CC(=O)N[C@@H](CCCCN)COC(N)=O)C(=O)[C@@H](N)CCCCN [Compound DD, Carbamic acid 6-amino-2-{2-[(5-amino-pentyl)-(2,6-diamino-hexanoyl)-amino]-acetylamino}-hexyl ester], the Kd was 567 nM. With NCCCCCN(CC(=O)N[C@@H](CCCCN)COC(N)=O)C(=O)[C@H](N)CCCCN [Compound DE, Carbamic acid 6-amino-2-{2-[(5-amino-pentyl)-(2,6-diamino-hexanoyl)-amino]-acetylamino}-hexyl ester] the Kd was 120 nM. NCCCCCNCC(=O)N(CCCCCN)CC(=O)N[C@@H](CCCCN)COC(N)=O [Compound DF, Carbamic acid 6-amino-2-(2-{(5-amino-pentyl)-[2-(5-amino-pentylamino)-acetyl]-amino}-acetylamino)-hexyl ester] showed a Kd of 31400 nM. For NCCCCCCCNCC(=O)N(CCCCCN)CC(=O)N[C@@H](CCCCN)COC(N)=O [Compound DG, Carbamic acid 6-amino-2-{2-[[2-(7-amino-heptylamino)-acetyl]-(5-amino-pentyl)-amino]-acetylamino}-hexyl ester], the Kd was 235 nM. With NCCCCCN(CC(=O)N[C@@H](CCCCN)COC(N)=O)C(=O)CNCCCCN [Compound DH, Carbamic acid 6-amino-2-{2-[[2-(4-amino-butylamino)-acetyl]-(5-amino-pentyl)-amino]-acetylamino}-hexyl ester] the Kd was 7690 nM. In the case of N=C(N)NCCC[C@H](N)COC(=O)N(CCCCCN)CC(=O)N[C@@H](CCCCN)COC(N)=O [Compound DI, Carbamic acid 6-amino-2-{2-[(2-amino-5-guanidino-pentyloxycarbonyl)-(5-amino-pentyl)-amino]-acetylamino}-hexyl ester], the Kd is reported as 235 nM. Compound NCCCCCN(CC(=O)N[C@@H](CCCCN)COC(N)=O)C(=O)OC[C@H](N)CCC(N)=O [Compound DJ, Carbamic acid 6-amino-2-{2-[(2-amino-4-carbamoyl-butoxycarbonyl)-(5-amino-pentyl)-amino]-acetylamino}-hexyl ester] has a Kd of 603 nM. For NCCCCCCCN(CC(=O)N[C@@H](CCCCN)COC(N)=O)C(=O)OC[C@@H](N)CCCCN [Compound DK, Carbamic acid 6-amino-2-{2-[(7-amino-heptyl)-(2,6-diamino-hexyloxycarbonyl)-amino]-acetylamino}-hexyl ester], the Kd was 1110 nM. Compound NCCCCCCCN(CC(=O)N[C@@H](CCCCN)COC(N)=O)C(=O)OC[C@H](N)CCCCN [Compound DL, Carbamic acid 6-amino-2-{2-[(7-amino-heptyl)-(2,6-diamino-hexyloxycarbonyl)-amino]-acetylamino}-hexyl ester] has a Kd of 678 nM. In the case of NCCCCCCCN(CC(=O)N[C@@H](CCCCN)COC(N)=O)C(=O)[C@@H](N)CCCCN [Compound DM, Carbamic acid 6-amino-2-{2-[(7-amino-heptyl)-(2,6-diamino-hexanoyl)-amino]-acetylamino}-hexyl ester], the Kd is reported as 256 nM. Work on NCCCCCCCN(CC(=O)N[C@@H](CCCCN)COC(N)=O)C(=O)[C@H](N)CCCCN [Compound DN, Carbamic acid 6-amino-2-{2-[(7-amino-heptyl)-(2,6-diamino-hexanoyl)-amino]-acetylamino}-hexyl ester] yielded a Kd of 678 nM. NCCCCCCCN(CC(=O)N[C@@H](CCCCN)COC(N)=O)C(=O)CNCCCCCN [Compound DO, Carbamic acid 6-amino-2-(2-{(7-amino-heptyl)-[2-(5-amino-pentylamino)-acetyl]-amino}-acetylamino)-hexyl ester] gave a Kd of 1040 nM. NCCCCCCCNCC(=O)N(CCCCCCCN)CC(=O)N[C@@H](CCCCN)COC(N)=O [Compound DP, Carbamic acid 6-amino-2-(2-{(7-amino-heptyl)-[2-(7-amino-heptylamino)-acetyl]-amino}-acetylamino)-hexyl ester] showed a Kd of 774 nM. For NCCCCCCCN(CC(=O)N[C@@H](CCCCN)COC(N)=O)C(=O)CNCCCCN [Compound DQ, Carbamic acid 6-amino-2-{2-[[2-(4-amino-butylamino)-acetyl]-(7-amino-heptyl)-amino]-acetylamino}-hexyl ester], the Kd was 6140 nM. Work on N=C(N)NCCC[C@H](N)COC(=O)N(CCCCCCCN)CC(=O)N[C@@H](CCCCN)COC(N)=O [Compound DR] yielded a Kd of 460 nM. In the case of NCCCCCCCN(CC(=O)N[C@@H](CCCCN)COC(N)=O)C(=O)OC[C@H](N)CCC(N)=O [Compound DS, Carbamic acid 6-amino-2-{2-[(2-amino-4-carbamoyl-butoxycarbonyl)-(7-amino-heptyl)-amino]-acetylamino}-hexyl ester], the Kd is reported as 3150 nM. Compound N=C(N)NCCC[C@H](N)COC(=O)N[C@@H](CCCCN)C(=O)N[C@H](CCCCN)COC(N)=O [Compound DT, Carbamic acid 6-amino-2-[6-amino-2-(2-amino-5-guanidino-pentyloxycarbonylamino)-hexanoylamino]-hexyl ester] has a Kd of 215 nM. NCCCC[C@H](COC(N)=O)NC(=O)[C@H](CCCCN)NC(=O)OC[C@H](N)CCC(N)=O [Compound DU, Carbamic acid 6-amino-2-[6-amino-2-(2-amino-4-carbamoyl-butoxycarbonylamino)-hexanoylamino]-hexyl ester] gave a Kd of 639 nM.
